From patent US10858360B2, “Tricyclic gyrase inhibitors” (priority 2011, dated 2020)
Values after ≈ are worked out from the molar mass of the structure shown. Read-outs that look alike come from different tables or passages of the source.

Columns and labels:
S. aureus ATCC 13709 = test: MIC, S. aureus ATCC 13709 (Alamar Blue broth microdilution); format: cell-based; conditions: for MIC: Staphylococcus aureus, ATCC13709, S. aureus
E. coli ATCC 25922 = test: MIC, E. coli ATCC 25922; format: cell-based; conditions: for MIC: Escherichia coli, ATCC25922, E. coli
[1] = Alamar Blue read after overnight incubation at 35° C.
[2] = S. aureus, Alamar Blue read after overnight incubation at 35° C.
[3] = E. coli, Alamar Blue read after overnight incubation at 35° C.

Row | Compound | MIC (S. aureus ATCC 13709; [1]) [µg/mL] | MIC (E. coli ATCC 25922; [1]) [µg/mL] | further results
1 | CNc1cc(F)cc2c1[nH]c1nc(Oc3cncc(C#N)c3)nc(N3CCC4(CC4N)C3)c12 (centres unmarked) [4.052] | ≤ 0.5 | ≤ 0.5 | 
2 | CNc1cc(F)cc2c1[nH]c1nc(Oc3ccc4c(c3)C(=O)NC4)nc(N3C[C@H](N)C4(CC4)C3)c12 [4.265] | ≤ 0.5 | 4 (≈ 8.45 µM) | 
3 | CNc1cc(F)cc2c1[nH]c1nc(Oc3cnc(C)nc3)nc(N3CC(N)C(C(=O)OC)C3)c12 (centres unmarked) [4.437] | ≤ 0.5 | 1 (≈ 2.14 µM) | 
4 | NC1C2CN(c3nc(Sc4cnc5ccc[n+]([O-])c5c4)nc4[nH]c5c(Cl)cccc5c34)CC12 (centres unmarked) [1.3] | 32 (≈ 67.2 µM) | > 64 | 
5 | CNc1cc(F)cc2c1[nH]c1nc(Oc3cncc(F)c3)nc(N3CCC4(C[C@H]4N)C3)c12 (some centres unmarked) [4.062] | ≤ 0.5 | ≤ 0.5 | 
6 | CNc1cc(F)cc2c1[nH]c1nc(Oc3cnc(C)nc3)nc(N3CCC4CNC4C3)c12 (centres unmarked) [4.081] |  |  | MIC Sa (S. aureus ATCC 13709; [2]): ≤0.5 µg/mL; MIC Ec (E. coli ATCC 25922; [3]): 1 µg/mL (≈ 2.3 µM)
7 | CNc1cc(F)cc2c1[nH]c1nc(Oc3cnc(N4CCC4)nc3)nc(N3C[C@H](N)C4(CC4)C3)c12 [4.297] | ≤ 0.5 | ≤ 0.5 | 
8 | CNc1cc(F)cc2c1[nH]c1nc(Oc3cnc(C(C)O)nc3)nc(C3CC4(CC[C@H]4N)C3)c12 (some centres unmarked) [4.430] | ≤ 0.5 | ≤ 0.5 | 
9 | CNc1cccc2c1[nH]c1nc(Oc3cncc(C#N)c3)nc(N3CC(N)C4(CC4)C3)c12 (centres unmarked) [3.43] | ≤ 0.5 | 1 (≈ 2.34 µM) | 
10 | CNc1cc(F)cc2c1[nH]c1nc(Oc3cncnc3)nc(N3CC4C(CN)C4C3)c12 (centres unmarked) [4.004] | ≤ 0.5 | 2 (≈ 4.76 µM) | 
11 | CNc1cc(F)cc2c1[nH]c1nc(Oc3cnc(CO)nc3)nc(N3CC4(CC[C@H]4N)C3)c12 [4.388] | ≤ 0.5 | ≤ 0.5 | 
12 | CNc1cc(F)cc2c1[nH]c1nc(Oc3cncnc3)nc(N3C[C@H]4CCN[C@H]4C3)c12 [4.020] | ≤ 0.5 | ≤ 0.5 | 
13 | CNc1cc(F)cc2c1[nH]c1nc(Oc3ccc(C#N)nc3)nc(N3CCC4(C[C@H]4N)C3)c12 (some centres unmarked) [4.334] |  |  | MIC Sa (S. aureus ATCC 13709; [2]): ≤0.5 µg/mL; MIC Ec (E. coli ATCC 25922; [3]): 8 µg/mL (≈ 18 µM)
14 | CNc1cc(F)cc2c1[nH]c1nc(Oc3cnc(C)nc3)nc(N3CC4C(CN)C4C3)c12 (centres unmarked) [4.106] |  |  | MIC Sa (S. aureus ATCC 13709; [2]): ≤0.5 µg/mL; MIC Ec (E. coli ATCC 25922; [3]): 2 µg/mL (≈ 4.6 µM)
15 | CNc1cc(F)cc2c1[nH]c1nc(Oc3cncc([S+](C)[O-])c3)nc(N3CC(N)C4(CC4)C3)c12 (centres unmarked) [4.352] |  |  | MIC Sa (S. aureus ATCC 13709; [2]): ≤0.5 µg/mL; MIC Ec (E. coli ATCC 25922; [3]): 4 µg/mL (≈ 8.31 µM)
16 | CNc1cc(F)cc2c1[nH]c1nc(Oc3cnc(N4CC(C)(N)C4)nc3)nc(N3CC4C(N)C4C3)c12 (centres unmarked) [4.339] |  |  | MIC Sa (S. aureus ATCC 13709; [2]): ≤0.5 µg/mL; MIC Ec (E. coli ATCC 25922; [3]): 1 µg/mL (≈ 2.04 µM)
17 | CNc1cccc2c1[nH]c1nc(Oc3cnc(C)nc3)nc(N3CC4C(C3)C4NCC3CC3)c12 (centres unmarked) [3.14] | ≤ 0.5 | 2 (≈ 4.38 µM) | 
18 | CNc1cc(F)cc2c1[nH]c1nc(Oc3cncc(-c4nn[nH]n4)c3)nc(N3CC4C(N)C4C3)c12 (centres unmarked) [4.224] | 1 (≈ 2.11 µM) | > 16 | 
19 | CNc1cc(F)cc2c1[nH]c1nc(Oc3cnc(C)nc3)nc(N3CC(N)C(C(=O)NCCN4CCOCC4)C3)c12 (centres unmarked) [4.440] | 16 (≈ 28.3 µM) | > 16 | 
20 | CNc1cc(F)cc2c1[nH]c1nc(Oc3cnc(C)nc3)nc(N3CC4(CCCN4)C3)c12 [4.119] |  |  | MIC Sa (S. aureus ATCC 13709; [2]): ≤0.5 µg/mL; MIC Ec (E. coli ATCC 25922; [3]): 2 µg/mL (≈ 4.6 µM)
21 | CNc1cc(F)cc2c1[nH]c1nc(Oc3cncc(-c4ccco4)c3)nc(N3CC4CC(N)C4C3)c12 (centres unmarked) [4.350] |  |  | MIC Sa (S. aureus ATCC 13709; [2]): ≤0.5 µg/mL; MIC Ec (E. coli ATCC 25922; [3]): 4 µg/mL (≈ 8.24 µM)
22 | CNc1cc(F)cc2c1[nH]c1nc(Oc3cnc(C)nc3)nc(N3CC4(CC(N)C4)C3)c12 [4.153] |  |  | MIC Sa (S. aureus ATCC 13709; [2]): ≤0.5 µg/mL; MIC Ec (E. coli ATCC 25922; [3]): 2 µg/mL (≈ 4.6 µM)
23 | CNc1cc(F)cc2c1[nH]c1nc(Oc3cnc(NC4CC4)nc3)nc(N3CCC(N)C3)c12 (centres unmarked) [4.222] |  |  | MIC Sa (S. aureus ATCC 13709; [2]): ≤0.5 µg/mL; MIC Ec (E. coli ATCC 25922; [3]): ≤0.5 µg/mL

Row | Compound | MIC (S. aureus ATCC 13709; [1]) [µg/mL] | MIC (E. coli ATCC 25922; [1]) [µg/mL] | further results
24 | CNc1cc(F)c(C)c2c1[nH]c1nc(Oc3cnc(C)nc3)nc(NCCCN)c12 [6.21] |  |  | MIC Sa (S. aureus ATCC 13709): >16 µg/mL; MIC Ec (E. coli ATCC 25922): >16 µg/mL
25 | CNc1cc(F)cc2c1[nH]c1nc(Sc3cnc4ccc[n+]([O-])c4c3)nc(N3CCC4(CC4N)C3)c12 (centres unmarked) [1.64] | ≤ 0.5 | ≤ 0.5 | 
26 | Cc1ncc(Oc2nc(N3C[C@H](NC(=O)CN)C4(CC4)C3)c3c(n2)[nH]c2c(N(C)C(=O)CN)cc(F)cc23)cn1 [4.427] | > 16 | > 16 | 
27 | CNc1cc(F)cc2c1[nH]c1nc(Oc3cnc(N)nc3)nc(N3CC4C(CN)C4C3)c12 (centres unmarked) [4.188] | ≤ 0.5 | 8 (≈ 18.4 µM) | 
28 | CNc1cc(F)cc2c1[nH]c1nc(Oc3cnc(C)nc3)nc(N3CC4C(C3)C4NC(=O)CN)c12 (centres unmarked) [4.078] |  |  | MIC Sa (S. aureus ATCC 13709; [2]): ≤0.5 µg/mL; MIC Ec (E. coli ATCC 25922; [3]): 8 µg/mL (≈ 16.8 µM)
29 | CNc1cc(F)cc2c1[nH]c1nc(Oc3cncc(Cl)c3)nc(N3CC4CC(N)C4C3)c12 (centres unmarked) [4.271] |  |  | MIC Sa (S. aureus ATCC 13709; [2]): ≤0.5 µg/mL; MIC Ec (E. coli ATCC 25922; [3]): ≤0.5 µg/mL
30 | CNc1cccc2c1[nH]c1nc(Oc3cnc4cccnc4c3)nc(N3CC4C(N)C4C3)c12 (centres unmarked) [3.34] | ≤ 0.5 | ≤ 0.5 | 
31 | CNc1cc(Cl)cc2c1[nH]c1nc(Oc3cnc(N)nc3)nc(N3CCC4(CC4N)C3)c12 (centres unmarked) [6.15] |  |  | MIC Sa (S. aureus ATCC 13709): ≤0.5 µg/mL; MIC Ec (E. coli ATCC 25922): ≤0.5 µg/mL
32 | CNc1cc(F)cc2c1[nH]c1nc(Oc3cnc(N4CC(O)C4)nc3)nc(N3C[C@H](N)C4(CC4)C3)c12 [4.299] | ≤ 0.5 | 4 (≈ 8.14 µM) | 
33 | CNc1cc(F)cc2c1[nH]c1nc(Oc3cncc(-c4nnnn4C)c3)nc(N3CC[C@@H](N)C3)c12 [4.169] | 2 (≈ 4.21 µM) | 8 (≈ 16.8 µM) | 
34 | CNc1cc(F)cc2c1[nH]c1nc(Oc3ccc4c(c3)ncn4C)nc(N3CC4C[C@@H](N)C4C3)c12 (some centres unmarked) [4.358] | ≤ 0.5 | 4 (≈ 8.47 µM) | 
35 | CNc1cccc2c1[nH]c1nc(Sc3cnc4ccc[n+]([O-])c4c3)nc(N3C[C@@H]4[C@@H](CN)[C@@H]4C3)c12 [1.18] | ≤ 0.5 | 2 (≈ 4.13 µM) | 
36 | CNc1cc(F)cc2c1[nH]c1nc(Oc3cnc(C4CC4)nc3)nc(N3CC4CCC(CN)C4C3)c12 (centres unmarked) [4.253] | ≤ 0.5 | ≤ 0.5 | 
37 | CNc1cc(F)c(F)c2c1[nH]c1nc(Oc3cnc(CO)nc3)nc(N3C[C@H]4C[C@@H]3C[C@H]4N)c12 [5.14] | ≤ 0.5 | ≤ 0.5 | 
38 | CNc1cccc2c1[nH]c1nc(Oc3cncc(OC)c3)nc(N3CC4C(N)C4C3)c12 (centres unmarked) [3.35] | ≤ 0.5 | 1 (≈ 2.4 µM) | 
39 | CNc1cc(F)cc2c1[nH]c1nc(Oc3cncnc3)nc(N3CC4C[C@@H](N)C4C3)c12 (some centres unmarked) [4.028] | ≤ 0.5 | ≤ 0.5 | 
40 | CNc1cc(F)cc2c1[nH]c1nc(Oc3cncnc3)nc(N3CC[C@]4(C[C@@H]4N)C3)c12 [4.013] | ≤ 0.5 | ≤ 0.5 | 
41 | CNc1cccc2c1[nH]c1nc(Oc3cncnc3)nc(N3C[C@@H](N)C4(CC4)C3)c12 [3.46] | 2 (≈ 4.97 µM) | 4 (≈ 9.94 µM) | 
42 | CNc1cc(F)cc2c1[nH]c1nc(Oc3cncc(Cl)c3)nc(N3CC4CC3CC4N)c12 (centres unmarked) [4.276] |  |  | MIC Sa (S. aureus ATCC 13709; [2]): ≤0.5 µg/mL; MIC Ec (E. coli ATCC 25922; [3]): 8 µg/mL (≈ 17.6 µM)
43 | CNc1cccc2c1[nH]c1nc(Oc3cncnc3)nc(N3C[C@H](N)C4(CC4)C3)c12 [3.47] | ≤ 0.5 | ≤ 0.5 | 
44 | CNc1cc(C)cc2c1[nH]c1nc(Oc3cnc(C)nc3)nc(N3CC4C(N)C4C3)c12 (centres unmarked) [6.26] |  |  | MIC Sa (S. aureus ATCC 13709): ≤0.5 µg/mL; MIC Ec (E. coli ATCC 25922): 1 µg/mL (≈ 2.4 µM)
45 | CNc1cc(F)cc2c1[nH]c1nc(Oc3cnc(C)nc3)nc(N3CC(N)CC3C)c12 (centres unmarked) [4.115] |  |  | MIC Sa (S. aureus ATCC 13709; [2]): 1 µg/mL (≈ 2.37 µM); MIC Ec (E. coli ATCC 25922; [3]): 8 µg/mL (≈ 18.9 µM)
46 | CNc1cc(F)cc2c1[nH]c1nc(Oc3cncnc3)nc(N3CC(N)C4(CC4)C3)c12 (centres unmarked) [4.002] | ≤ 0.5 | ≤ 0.5 | 
